Experimental data from article PMC6514670, “Field-Based Affinity Optimization of a Novel Azabicyclohexane Scaffold HIV-1 Entry Inhibitor” (Molecules, 2019).

What was measured:
[1] = molecular target: B41 SOSIP.664 gp140 trimer (Human immunodeficiency virus type 1, UniProt B3UES2, A505C/E513R/I563P/INS515RR/K514R/T609C); type: binding, HIV-1
[2] = system: HIV-1JRFL Env pseudotyped HIV-1; assay: Single-round infection assay, JRFL Env pseudotyped virus; conditions: Human immunodeficiency virus 1, U87/CD4/CCR5, 48 h, read-out: IC50 JRFL
[3] = system: HIV-1B41 Env pseudotyped HIV-1; assay: Single-round infection assay, B41 Env pseudotyped virus; conditions: Human immunodeficiency virus 1, U87/CD4/CCR5, 48 h, read-out: IC50 B41
[4] = system: HIV-1HxBc2 Env pseudotyped HIV-1; assay: Single-round infection assay, HxBc2 Env pseudotyped virus; conditions: Human immunodeficiency virus 1, U87.CD4.CXCR4, 48 h, read-out: IC50 HxBc2
[5] = system: HIV-1YU-2 Env pseudotyped HIV-1; assay: Single-round infection assay, YU-2 Env pseudotyped virus; conditions: Human immunodeficiency virus 1, U87/CD4/CCR5, 48 h, read-out: IC50 YU-2
[6] = Cellular toxicity (Cell Counting Kit-8); type: cell-based, Human; conditions: human, U87.CD4.CCR5/CXCR4 cells; 48 h, CCK-8, 0.1–1000 µM
Protocol: (§1) The viability of the U87.CD4.CCR5/CXCR4 cells was determined using the Cell Counting Kit-8 cell proliferation and cytotoxicity assay (Dojindo Molecular Technologies, Rockville, MD, USA) per the manufacturer’s instructions. U87.CD4.CCR5/CXCR4 cells (1.2 × 10^4 cells/well) were seeded in 96-well tissue culture plates (Olympus Plastics, San Diego, CA, USA). After 24 h, cells were treated with compound (0.1–1000 µM) or DMSO (Sigma) for 48 h at 37 °C. Subsequently, 10 µL of the CCK-8 solution was added to each well and incubated for 4 h at 37 °C. Following the 4 h incubation, the absorbance at 450 nm was measured in a Multiskan™ GO Microplate Spectrophotometer (Thermo Scientific). Untreated cells were used as a background control and 0.1% SDS treated cells were used as a positive control.

U87.CD4.CCR5/CXCR4 cells = assay: Cellular toxicity (Cell Counting Kit-8); type: cell-based, Human; conditions: CC50 / median IC50
Protocol: as §1

[7] = system: HIV-1B41, HIV-1HxBc2, HIV-1JRCSF, HIV-1JRFL, and HIV-1YU-2 Env pseudotyped HIV-1; assay: Single-round infection assay, summary over the five Env pseudotypes; conditions: Human immunodeficiency virus 1, read-out: Median IC50
[8] = system: HIV-1JRCSF Env pseudotyped HIV-1; assay: Single-round infection assay, JRCSF Env pseudotyped virus; conditions: Human immunodeficiency virus 1, U87/CD4/CCR5, 48 h, read-out: IC50 JRCSF

| Structure (SMILES) | ka [1] | kd [1] | IC50 [2] | IC50 [3] | IC50 [4] | IC50 [5] | CC50 at 48 h [6] | Therapeutic Index (CC50/IC50) (U87.CD4.CCR5/CXCR4 cells) | IC50 [7] | IC50 [8] | improvement in KD (affinity) in comparison to parental SC28 [1] | SPR surface saturation ([1]; 12.5 µM and 6.25 µM, 13000 RUs trimer immobilized, theoretical Rmax 41 RUs) | increase of ka parameter in comparison to SC28 ([1]; SPR) |
| --- | --- | --- | --- | --- | --- | --- | --- | --- | --- | --- | --- | --- | --- |
| COc1cnc(-n2cnc(C)n2)c2[nH]cc(C(=O)C(=O)N3CC4CN(C(=O)c5ccccc5)CC4C3)c12 (stereo not shown) [SC11] | 3.83 ± 1.12 × 10^3 M^−1s^−1 | 5.02 ± 2.67 × 10^−4 s^−1 |  |  |  |  |  |  |  |  |  |  |  |
| COc1cnc(-n2cnc(C)n2)c2[nH]cc(C(=O)C(=O)N3CC(CCC(=O)c4ccccc4)C3)c12 [SC15] | 3.01 ± 0.188 × 10^5 M^−1s^−1 | 5.44 ± 0.677 × 10^−3 s^−1 |  |  |  |  |  |  |  |  |  |  |  |
| COc1cnc(-n2cnc(C)n2)c2[nH]cc(C(=O)C(=O)NC3C4CN(C(=O)c5ccccc5)CC43)c12 (stereo not shown) [SC28] | 1.39 ± 0.14 × 10^4 M^−1s^−1 | 6.99 ± 0.43 × 10^−3 s^−1 | 170 ± 50 nM | 35 ± 6.2 nM | 21 ± 5 nM | 480 ± 50 nM | 190 ± 54 µM | 1291.21 | 150 ± 170 nM | 26 ± 9 nM |  |  |  |
| COc1cnc(-n2cnc(C)n2)c2[nH]cc(C(=O)C(=O)N3CC=C(CNC(=O)c4ccccc4)CC3)c12 [SC45] | 1.38 ± 0.045 × 10^4 M^−1s^−1 | 1.52 ± 0.0294 × 10^−2 s^−1 |  |  |  |  |  |  |  |  |  |  |  |
| CNC(=O)c1ncc(OC)c2c(C(=O)C(=O)NC3C4CN(C(=O)c5ccccc5)CC43)c[nH]c12 (stereo not shown) [SC49] | 9.49 ± 1.6 × 10^2 M^−1s^−1 | 3.43 ± 0.36 × 10^−2 s^−1 | 33300 ± 11600 nM | 26000 ± 19000 nM | 62000 ± 1400 nM | 57200 ± 26500 nM | 326 ± 81 µM | 7.31 | 45000 ± 15000 nM |  |  |  |  |
| O=C(NC1C2CN(C(=O)c3ccccc3)CC21)C(=O)c1c[nH]c2c(-c3cccnc3)ncc(F)c12 (stereo not shown) [SC50] |  |  | 24300 ± 6200 nM | 7100 ± 4200 nM | 6900 ± 5200 nM | 22600 ± 4200 nM | 120 ± 18 µM | 6.63 | 18000 ± 9000 nM | 28900 ± 5620 nM |  |  |  |
| C=C(C(=O)NC1C2CN(C(=O)c3ccccc3)CC21)n1ccc2c(-n3cnc(C)n3)nc3ccnn3c21 (stereo not shown) [SC52, N-(3-benzoyl-3-azabicyclo[3.1.0]hexan-6-yl)-2-(5-(3-methyl-1H-1,2,4-triazol-1-yl)-8H-pyrazolo[1,5-a]pyrrolo[3,2-e]pyrimidin-8-yl)acrylamide] |  |  |  | 430 ± 100 nM | 440 ± 170 nM | 1350 ± 440 nM | 9.2 ± 1.1 µM | 8.65 | 1060 ± 668 nM | 2020 ± 250 nM |  |  |  |
| Nc1nc(-c2ccc(F)c3c(C(=O)C(=O)NC4C5CN(C(=O)c6ccccc6)CC54)c[nH]c23)no1 (stereo not shown) [SC55, 2-(7-(5-amino-1,2,4-oxadiazol-3-yl)-4-fluoro-1H-indol-3-yl)-N-(3-benzoyl-3-azabicyclo[3.1.0]hexan-6-yl)-2-oxoacetamide] |  |  | 450 ± 330 nM | 2020 ± 810 nM | 730 ± 560 nM | 1150 ± 810 nM | 73 ± 14 µM | 75.85 | 960 ± 590 nM | 450 ± 350 nM |  |  |  |
| COc1ccc(-c2noc(N)n2)c2[nH]cc(C(=O)C(=O)NC3C4CN(C(=O)c5ccccc5)CC43)c12 (stereo not shown) [SC56, 2-(7-(5-Amino-1,2,4-oxadiazol-3-yl)-4-methoxy-1H-indol-3-yl)-N-(3-benzoyl-3-azabicyclo[3.1.0]hexan-6-yl)-2-oxoacetamide] | 1.22 ± 0.067 × 10^7 M^−1s^−1 | 6.39 ± 0.31 × 10^−3 s^−1 | 130 ± 15 nM | 51 ± 8 nM | 11 ± 3 nM | 110 ± 49 nM | 94 ± 10 µM | 1344.71 | 69.8 ± 45 nM | 46 ± 9 nM | 1000 fold | saturate the surface | 1000 factor |
